Test results published in patent US20110098309A1, “METHODS OF INHIBITING THE FORMATION OF AMYLOID-BETA DIFFUSABLE LIGANDS USING ACYLHYDRAZIDE COMPOUNDS” (priority 2007, published 2011).

Target: Aβ1-42 (Homo sapiens, UniProt P05067)
Assay: FRET assay of Aβ1-42 oligomer (ADDL) assembly inhibition
Format: biochemical
Conditions: 0.2 μM FITC-Aβ(1-42) and 0.8 μM Aβ(1-42), 37° C., six concentrations from about 10 μM to about 0.03 μM
Excerpt: Fluorescence (or Förster) Resonance Energy Transfer (FRET) is a distance-dependent, non-radiative transfer of energy in which the de-excitation of one fluorophore (donor) is coupled to excitation of another fluorophore (acceptor). FRET occurs if (1) the quantum of energy emitted by a donor fluorophore corresponds to an acceptor fluorophore's excitation energy, (2) the orientations of donor and acceptor transition dipoles are nearly parallel and (3) the donor fluorescent emission spectrum overlaps the acceptor absorption spectrum.
In this assay, assembly of Aβ1-42 oligomer formation is monitored by FRET using N-terminal conjugates of fluorescein-Aβ1-42 as both the donor and acceptor fluorophore (fluorescein-fluorescein Ro˜45 Å). […] Inhibition of Aβ1-42 assembly is observed as the absence or attenuation of fluorescein quenching.
FRET and FP assays are performed in 384-well Corning Non-Binding Surface, black, opaque microtiter plates, and the assay buffer consists of 25 mM MOPS-Tris (pH 8.0) with 100 mM MgCl2. The assay volume, containing 0.2 μM FITC-Aβ(1-42) and 0.8 μM Aβ(1-42), is 50 μl and the temperature is 37° C. […] Kinetic traces are collected by recording fluorescence intensity and polarization readings every five minutes over about a three hour time course. […] Positive control reactions contain all buffer components in the absence of added small molecule or antibody reagents. To test for ADDL assembly inhibition, the compound was incubated with the peptide mixture at six concentrations from about 10 μM decreasing to about 0.03 μM.

Chain of Aβ1-42 (P05067 672-713 limits assumed): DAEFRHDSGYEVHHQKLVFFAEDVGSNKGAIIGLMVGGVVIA

| SMILES | IC50 |
| --- | --- |
| COc1ccc(O)c(/C=N/NC(=O)c2cccc3c2NC(=O)C3)c1 [Compound 52, N′-(2-hydroxy-5-methoxy-benzylidene)-2-oxoindoline-7-carbohydrazide] | 4.2 µM |
| Cc1ccc(C(=O)N/N=C/c2cccc(C)c2O)cn1 [Compound 53, N′-(2-hydroxy-3-methyl-benzylidene)-6-methylnicotino-hydrazide] | 4.6 µM |
| Cn1cc(I)c(C(=O)N/N=C/c2c(O)ccc3ccccc23)n1 [Compound 54, N′-((2-hydroxy-naphthalen-1-yl)methylene)-4-iodo-1-methyl-1H-pyrazole-3-carbohydrazide] | 5 µM |
| COc1cccc(O)c1/C=N/NC(=O)c1ccccc1O [Compound 55, 2-hydroxy-N′-(2-hydroxy-6-methoxy-benzylidene)benzohydrazide] | 5.3 µM |
| COc1ccc(O)c(/C=N/NC(=O)c2ccc(-n3c(C)ccc3C)cc2)c1 [Compound 56, 4-(2,5-dimethyl-1H-pyrrol-1-yl)-N′-(2-hydroxy-5-methoxy-benzylidene) benzohydrazide] | 6.1 µM |
| O=C(N/N=C/c1cc(OC(F)(F)F)ccc1O)c1ccccc1O [Compound 57, 2-hydroxy-N′-(2-hydroxy-5-(trifluoro-methoxy)benzylidene)benzohydrazide] | 6.3 µM |
| COc1ccc(O)c(/C=N/NC(=O)c2cccc3cc[nH]c23)c1 [Compound 58, N′-(2-hydroxy-5-methoxy-benzylidene)-1H-indole-7-carbohydrazide] | 6.4 µM |
| O=C(N/N=C/c1cc(Cl)ccc1O)c1ccccc1O [Compound 59, N′-(5-chloro-2-hydroxy-benzylidene)-2-hydroxy-benzohydrazide] | 6.5 µM |
| C=CCc1cccc(/C=N/NC(=O)c2ccc(I)cc2)c1O [Compound 60, N′-(3-allyl-2-hydroxy-benzylidene)-4-iodo-benzohydrazide] | 6.5 µM |
| O=C(N/N=C/c1c(O)ccc2ccccc12)c1sc2cc(F)ccc2c1Cl [Compound 61, 3-chloro-6-fluoro-N′-((2-hydroxynaphthalen-1-yl)methylene) benzo[b]thiophene-2-carbohydrazide] | 6.7 µM |
| O=C(N/N=C/c1ccc(O)cc1O)c1ccccc1NS(=O)(=O)c1ccc(Cl)cc1 [Compound 62, 4-chloro-N-(2-(2-(2,4-dihydroxy-benzylidene)hydrazine-carbonyl)phenyl)benzene-sulfonamide] | 6.7 µM |
| COc1ccc(O)c(/C=N/NC(=O)c2cccc(C)c2O)c1 [Compound 63, 2-hydroxy-N′-(2-hydroxy-5-methoxy-benzylidene)-3-methyl-benzohydrazide] | 7 µM |
| NC(=O)c1ccccc1/C=N/NC(=O)c1ccccc1O [Compound 64, 2-((2-(2-hydroxybenzoyl)hydrazono)methyl)benzamide] | 7.1 µM |
| Nc1ccc(Cl)cc1/C=N/NC(=O)c1ccccc1O [Compound 65, N′-(2-amino-5-chloro-benzylidene)-2-hydroxy-benzohydrazide] | 7.5 µM |
| COc1ccc(O)c(/C=N/NC(=O)c2c(O)ccc3ccccc23)c1 [Compound 66, 2-hydroxy-N′-(2-hydroxy-5-methoxy-benzylidene)-1-naphtho-hydrazide] | 7.7 µM |
| COc1ccc(O)c(/C=N/NC(=O)c2ccc(F)cc2O)c1 [Compound 67, 4-fluoro-2-hydroxy-N′-(2-hydroxy-5-methoxy-benzylidene)benzohydrazide] | 8.3 µM |
| Cc1ccc(O)c(/C=N/NC(=O)c2ccccc2O)c1 [Compound 68, 2-hydroxy-N′-(2-hydroxy-5-methyl-benzylidene)benzohydrazide] | 9.2 µM |
| O=C(N/N=C/c1cc(Cl)cc(Cl)c1O)c1ccccc1O [Compound 69, N′-(3,5-dichloro-2-hydroxy-benzylidene)-2-hydroxy-benzohydrazide] | 9.2 µM |
| COc1ccc(O)c(/C=N/NC(=O)c2scc(C)c2Cl)c1 [Compound 70, 3-chloro-N′-(2-hydroxy-5-methoxy-benzylidene)-4-methylthiophene-2-carbohydrazide] | 9.4 µM |
| COc1ccc(O)c(/C=N/NC(=O)c2ccccc2NS(=O)(=O)c2ccc(Cl)cc2)c1 [Compound 71, 4-chloro-N-(2-(2-(2-hydroxy-5-methoxy-benzylidene)hydrazine-carbonyl)phenyl)benzene-sulfonamide] | 9.7 µM |
| O=C(N/N=C/c1ccc2ccccc2c1O)c1ccccc1O [Compound 72, 2-hydroxy-N′-((1-hydroxy-naphthalen-2-yl)methylene)benzohydrazide] | 10.4 µM |
| COc1ccc(O)c(/C=N/NC(=O)c2cc(C)ccc2O)c1 [Compound 73, 2-hydroxy-N′-(2-hydroxy-5-methoxy-benzylidene)-5-methyl-benzohydrazide] | 10.4 µM |
| O=C(N/N=C/c1cccc(F)c1O)c1ccccc1O [Compound 74, N′-(3-fluoro-2-hydroxy-benzylidene)-2-hydroxy-benzohydrazide] | 10.9 µM |
| COc1ccc(O)c(/C=N/NC(=O)c2cc(F)ccc2O)c1 [Compound 75, 5-fluoro-2-hydroxy-N′-(2-hydroxy-5-methoxy-benzylidene)benzohydrazide] | 10.9 µM |
| COc1ccc(C(=O)N/N=C/c2cc(OC)ccc2O)c(O)c1 [Compound 76, 2-hydroxy-N′-(2-hydroxy-5-methoxy-benzylidene)-4-methoxy-benzohydrazide] | 11.1 µM |
| CCOC(=O)c1c(C)oc2cc(Br)c(O)c(/C=N/NC(=O)c3ccccc3O)c12 [Compound 77, ethyl 6-bromo-5-hydroxy-4-((2-(2-hydroxybenzoyl)hydrazono)methyl)-2-methyl-benzofuran-3-carboxylate] | 11.6 µM |
| COc1ccc(O)c(/C=N/NC(=O)c2cc(-c3ccc4c(c3)OCO4)n[nH]2)c1 [Compound 78, 3-(benzo[d][1,3]dioxol-5-yl)-N′-(2-hydroxy-5-methoxybenzylidene)-1H-pyrazole-5-carbohydrazide] | 11.6 µM |
| C/C(=N\NC(=O)c1ccccc1O)c1ccc(C)cc1 [Compound 79, 2-hydroxy-N′-(1-p-tolylethylidene) benzohydrazide] | 13.3 µM |
| CCN(CC)c1ccc(/C=N/NC(=O)c2ccccc2O)c(O)c1 [Compound 80, N'-(4-(diethylamino)-2-hydroxy-benzylidene)-2-hydroxy-benzohydrazide] | 14.4 µM |

The remaining compounds from weak to strong by IC50, led by results:

| IC50 | SMILES |
| --- | --- |
| 4.2 µM | COc1ccc(O)c(/C=N/NC(=O)c2ccc(Cl)cc2O)c1 [Compound 51, 4-chloro-2-hydroxy-N′-(2-hydroxy-5-methoxy-benzylidene)benzohydrazide] |
| 4.1 µM | O=C(N/N=C/c1cc(Br)ccc1O)c1ccccc1O [Compound 50, N′-(5-bromo-2-hydroxy-benzylidene)-2-hydroxybenzohydrazide] |
| 3.8 µM | Cc1occc1C(=O)N/N=C/c1cc(Br)cc(Br)c1O [Compound 49, N′-(3,5-dibromo-2-hydroxy-benzylidene)-2-methylfuran-3-carbohydrazide] |
| 3.7 µM | COc1cccc(-c2ccc(O)c(/C=N/NC(=O)c3ccccc3O)c2)c1 [Compound 48, 2-hydroxy-N′-((4-hydroxy-3′-methoxybiphenyl-3-yl)methylene) benzohydrazide] |
| 3.5 µM | CC(C)(C)c1ccc(O)c(/C=N/NC(=O)c2ccccc2O)c1 [Compound 47, N′-(5-tert-butyl-2-hydroxybenzylidene)-2-hydroxy-benzohydrazide] |
| 3.3 µM | O=C(N/N=C/c1c(O)cccc1Br)c1ccccc1O [Compound 45, N′-(2-bromo-6-hydroxybenzylidene)-2-hydroxybenzo-hydrazide] |
| 3.3 µM | O=C(N/N=C/c1cc(C2CCCCC2)cc(Cl)c1O)c1ccccc1O [Compound 46, N′-(3-chloro-5-cyclohexyl-2-hydroxybenzylidene)-2-hydroxybenzo-hydrazide] |
| 3.2 µM | O=C(N/N=C/c1c(O)ccc2ccccc12)c1ccccc1NS(=O)(=O)c1ccc(Cl)cc1 [Compound 43, 4-chloro-N-(2-(2-((2-hydroxynaphthalen-1-yl)methylene)hydrazinecarbonyl)phenyl) benzenesulfonamide] |
| 3.2 µM | COc1ccc(O)c(/C=N/NC(=O)c2[nH]c3ccccc3c2Cl)c1 [Compound 44, 3-chloro-N′-(2-hydroxy-5-methoxybenzylidene)-1H-indole-2-carbohydrazide] |
| 2.8 µM | O=C(N/N=C/c1cc(Br)cc(Br)c1O)c1ccccc1O [Compound 42, N′-(3,5-dibromo-2-hydroxybenzylidene)-2-hydroxybenzohydrazide] |
| 2.3 µM | O=C(N/N=C/c1c(O)cccc1O)c1ccccc1O [Compound 41, N′-(2,6-dihydroxybenzylidene)-2-hydroxy benzohydrazide] |
| 2.1 µM | O=C(N/N=C/c1cc(F)cc(Cl)c1O)c1ccccc1O [Compound 40, N′-(3-chloro-5-fluoro-2-hydroxybenzylidene)-2-hydroxy-benzohydrazide] |
| 1.6 µM | O=C(N/N=C/c1cc(Br)cc(I)c1O)c1cccc(F)c1 [Compound 39, N′-(5-bromo-2-hydroxy-3-iodobenzylidene)-3-fluoro-benzohydrazide] |
| 1.2 µM | COc1ccc(O)c(/C=N/NC(=O)c2ccc3ccccc3c2O)c1 [Compound 38, 1-hydroxy-N′-(2-hydroxy-5-methoxybenzylidene)-2-naphtho-hydrazide] |
